# According to US20250170110A1, “LYMPHATIC TARGETED ANTI-COAGULANT FOR THE PREVENTION OF LYMPHATIC THROMBOSIS” (THE TRUSTEES OF THE UNIVERSITY OF PENNSYLVANIA, priority 2022, published 2025):
# Test system: gut lymphatic clotting
# Experiment: lymphatic clots in mice with induced deletion of lymphatic endothelial thrombomodulin (THBD)
# Assay type: in vivo
# Conditions: oral warfarin in water, 3 weeks after induction
# From the text: FIGS. 7A-7C show oral delivery of warfarin prevents lymphatic clots in mouse model of lymphothrombosis. […] P-values are indicated by asterisks as follows: ***p<0.001.
# However, dosing with existing antithrombotic drugs will confer systemic anticoagulation, with established significant risks of bleeding throughout the body, including in the gut and brain. […] Therefore, there is a clear need for a functional antithrombotic drug that can be delivered and act preferentially to the gut lymphatics at a therapeutic dose. In addition, the volume of lymphatic fluid in the gut is much less than the volume of blood in the body, which means that a therapeutic dose of drug directly to the gut lymphatics will be massively diluted once it reaches the blood stream to well below therapeutic levels, thereby preventing systemic anticoagulation and inappropriate bleeding.
smiles,measurement,value
CC(=O)CC(c1ccccc1)c1c(O)c2ccccc2oc1=O (stereo not shown) [warfarin],lymphatic clotting (fibrin positive lymphatic vessels),prevented lymphatic clotting
